The target of the experiment is Plasma kallikrein (Homo sapiens, UniProt P03952). As to the kind of experiment: Inhibitory Activity Assay: Example compounds were evaluated for inhibition of the human activated kallikrein enzyme in two formats of an assay employing a fluorogenic peptide substrate. In one assay format, the concentrations of reagents were as follows: 20 mM Tris pH 7.5, 1 mM EDTA, 150 mM sodium chloride, 0.1% PEG-400, 0.1% Triton X-100, 500 pM activated kallikrein enzyme, 300 uM Pro-Phe-Arg-7-amido-4-methylcoumarin substrate. Prior to reaction initiation with substrate, enzyme and inhibitors were preincubated for 30 min at RT. After initiation with substrate, reactions were incubated for 10 min at RT and fluorescence emission at 460 nm from 380 nm excitation measured with a microplate reader. In another assay format, the concentrations of reagents were as follows: 20 mM Tris pH 7.5, 1 mM EDTA, 150 mM sodium chloride, 0.1% PEG-400, 0.1% Triton X-100, 5 pM activated kallikrein enzyme, 300 uM Pro-Phe-Arg-7-amido-4-methylcoumarin substrate. Prior to reaction initiation with substrate, enzyme and inhibitors were preincubated for 30 min at RT. After initiation with substrate, reactions were incubated for 18 h at RT and fluorescence emission at 460 nm from 380 nm excitation measured with a microplate reader.
Sequence of Plasma kallikrein (P03952 20-390 limits assumed): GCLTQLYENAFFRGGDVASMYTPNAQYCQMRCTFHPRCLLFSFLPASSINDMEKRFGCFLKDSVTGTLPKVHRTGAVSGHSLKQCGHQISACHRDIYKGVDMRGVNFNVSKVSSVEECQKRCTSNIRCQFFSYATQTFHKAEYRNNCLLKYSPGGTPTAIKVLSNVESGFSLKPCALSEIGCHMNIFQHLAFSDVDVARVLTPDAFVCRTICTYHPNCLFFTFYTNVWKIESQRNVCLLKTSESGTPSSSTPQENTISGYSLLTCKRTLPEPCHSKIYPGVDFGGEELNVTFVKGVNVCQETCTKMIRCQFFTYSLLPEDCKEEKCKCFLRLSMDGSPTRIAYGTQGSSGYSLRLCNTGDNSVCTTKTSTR
Sequence of Plasma kallikrein (P03952 391-638 limits assumed): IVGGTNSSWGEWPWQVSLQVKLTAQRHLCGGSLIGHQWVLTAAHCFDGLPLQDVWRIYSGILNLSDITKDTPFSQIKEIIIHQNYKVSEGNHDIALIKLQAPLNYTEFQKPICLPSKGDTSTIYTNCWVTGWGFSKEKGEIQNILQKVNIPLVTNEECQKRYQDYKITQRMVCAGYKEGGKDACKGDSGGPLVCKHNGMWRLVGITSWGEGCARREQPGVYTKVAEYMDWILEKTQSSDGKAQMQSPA

For one compound, EC50 results are on record in ChEMBL document CHEMBL5729147, “Inhibitors of plasma kallikrein and uses thereof” (2022).

As a reminder, the EC50 is the concentration giving half of the maximal effect. The compound `O=C(NCc1ncn2ccc(Cl)cc12)c1cnn(Cc2cc3cc(C4CC4)ccn3n2)c1` gave an EC50 below 1 nM.
